In data set [1] the test system is Male Wistar rats. The data set can be described thus: Sleep-wakefulness, locomotor activity and body temperature monitoring (SCORE-2000) in rats.
Data set [2] addresses T1, muscarinic1 binding site (Bos taurus, UniProt F1N5C5).
T1 sequence (F1N5C5 1-460): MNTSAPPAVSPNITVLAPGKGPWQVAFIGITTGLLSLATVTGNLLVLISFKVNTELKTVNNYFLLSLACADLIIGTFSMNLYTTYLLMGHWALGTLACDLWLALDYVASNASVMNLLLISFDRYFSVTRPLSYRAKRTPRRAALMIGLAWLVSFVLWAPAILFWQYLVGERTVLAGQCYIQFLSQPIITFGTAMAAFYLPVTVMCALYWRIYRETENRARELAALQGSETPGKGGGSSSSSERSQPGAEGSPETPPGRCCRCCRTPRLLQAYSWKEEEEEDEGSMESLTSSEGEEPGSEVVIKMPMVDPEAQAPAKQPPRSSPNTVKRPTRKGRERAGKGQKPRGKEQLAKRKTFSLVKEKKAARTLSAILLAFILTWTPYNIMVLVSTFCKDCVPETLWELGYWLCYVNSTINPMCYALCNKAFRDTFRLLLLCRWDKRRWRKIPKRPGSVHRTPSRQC
Kind of data set: biochemical.

In data set [3] the target is T2, histamine receptor, H1 (Bos taurus, UniProt P30546).
T2 construct: from tissue; host or cells: bovine cerebellar membranes (per earlier reading)
T2 sequence (P30546 whole entry): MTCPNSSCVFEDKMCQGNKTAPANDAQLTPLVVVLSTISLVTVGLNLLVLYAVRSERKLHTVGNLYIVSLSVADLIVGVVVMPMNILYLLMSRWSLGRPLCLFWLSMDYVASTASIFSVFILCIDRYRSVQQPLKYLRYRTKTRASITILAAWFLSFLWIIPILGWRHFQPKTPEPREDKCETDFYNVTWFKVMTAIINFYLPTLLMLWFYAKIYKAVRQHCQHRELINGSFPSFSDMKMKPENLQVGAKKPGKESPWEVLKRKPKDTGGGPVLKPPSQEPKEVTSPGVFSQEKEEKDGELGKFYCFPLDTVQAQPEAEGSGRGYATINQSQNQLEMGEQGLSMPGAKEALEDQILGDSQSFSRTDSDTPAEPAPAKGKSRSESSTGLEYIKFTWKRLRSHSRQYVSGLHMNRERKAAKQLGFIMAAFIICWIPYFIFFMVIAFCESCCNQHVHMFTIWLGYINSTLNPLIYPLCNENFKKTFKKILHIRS
The data set can be described thus: H1 binding assay, displacement of [3H]Pyrilamine, bovine cerebellar membranes. For orientation: Loss of bound radioactivity is the signal in a displacement assay; it reports binding, not function.

The target in data set [4] is T3, cloned muscarinic - M1 binding site (Homo sapiens, UniProt P11229).
T3 construct: expressed in transfected cells; host or cells: CHO cells
T3 sequence (P11229 1-460): T1 sequence (F1N5C5 1-460) with A206T, T265A, A315T, R331K, E335D
The data set can be described thus: Muscarinic M1 binding assay, [3H]-Scopolamine N-Methyl Chloride, human recombinant expressed in CHO cells.

Data set [5] addresses T4, cloned muscarinic - M2 binding site (Homo sapiens, UniProt P08172).
T4 construct: expressed in transfected cells; host or cells: CHO cells
T4 sequence (P08172 1-466): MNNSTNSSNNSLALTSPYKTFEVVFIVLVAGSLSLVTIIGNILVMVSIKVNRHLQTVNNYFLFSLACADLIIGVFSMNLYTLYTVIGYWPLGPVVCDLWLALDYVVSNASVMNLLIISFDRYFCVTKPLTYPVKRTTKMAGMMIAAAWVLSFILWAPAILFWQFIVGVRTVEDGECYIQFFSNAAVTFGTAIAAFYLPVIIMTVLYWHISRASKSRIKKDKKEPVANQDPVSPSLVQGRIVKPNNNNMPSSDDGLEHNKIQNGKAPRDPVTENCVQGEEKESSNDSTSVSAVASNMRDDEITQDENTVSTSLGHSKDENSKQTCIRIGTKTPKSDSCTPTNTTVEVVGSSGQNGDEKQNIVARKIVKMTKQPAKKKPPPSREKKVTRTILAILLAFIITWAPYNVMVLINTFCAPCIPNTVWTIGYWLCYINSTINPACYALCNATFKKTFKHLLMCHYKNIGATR
The data set can be described thus: Muscarinic M2 binding assay, [3H]-Scopolamine N-Methyl Chloride, human recombinant expressed in CHO cells.

Data set [6] addresses T5, cloned muscarinic - M3 binding site (Homo sapiens, UniProt P20309).
T5 construct: expressed in transfected cells; host or cells: CHO cells
Kind of data set: Muscarinic M3 binding assay, [3H]-Scopolamine N-Methyl Chloride, human recombinant expressed in CHO cells.

[7] abbreviates: Table 6, read-out: Receptor Binding Data (Ki nM) H1.
Where [8] appears, read: Table 6, human recombinant, read-out: Receptor Binding Data (Ki nM) M1.
Setting [9] is: Table 6, human recombinant, read-out: Receptor Binding Data (Ki nM) M2.
[10] abbreviates: Table 6, human recombinant, read-out: Receptor Binding Data (Ki nM) M3.
[11] abbreviates: Series 11 compounds, Table 5, unit inferred, read-out: H1 Ki.
The mark [12] stands for this setting: Series 11 compounds, Table 5, unit inferred, receptor source not given.
Where [13] appears, read: Series 11 compounds, Table 5, unit inferred, receptor source not given, read-out: M1 Ki.
[14] abbreviates: Series 11 compounds, Table 5, unit inferred, receptor source not given, read-out: M2 Ki.
[15] abbreviates: Series 11 compounds, Table 5, unit inferred, receptor source not given, read-out: M3 Ki.
Where [16] appears, read: Series 11 compounds, Table 5, unit inferred.

Numbering of substitutions follows the chain as printed. Structures can show the parent of a compound that is named as a salt. Where two headings read alike, the source gives them in different places.

The values that follow come from US20040142972A1, “CNS target modulators” (Hypnion, Inc., priority 2001, published 2004).

One may read the Ki as the dissociation constant of the complex between target and ligand, obtained from inhibition or displacement. In general, IC50 refers to the concentration at which inhibition is half-maximal.

T5 sequence (P20309 whole entry): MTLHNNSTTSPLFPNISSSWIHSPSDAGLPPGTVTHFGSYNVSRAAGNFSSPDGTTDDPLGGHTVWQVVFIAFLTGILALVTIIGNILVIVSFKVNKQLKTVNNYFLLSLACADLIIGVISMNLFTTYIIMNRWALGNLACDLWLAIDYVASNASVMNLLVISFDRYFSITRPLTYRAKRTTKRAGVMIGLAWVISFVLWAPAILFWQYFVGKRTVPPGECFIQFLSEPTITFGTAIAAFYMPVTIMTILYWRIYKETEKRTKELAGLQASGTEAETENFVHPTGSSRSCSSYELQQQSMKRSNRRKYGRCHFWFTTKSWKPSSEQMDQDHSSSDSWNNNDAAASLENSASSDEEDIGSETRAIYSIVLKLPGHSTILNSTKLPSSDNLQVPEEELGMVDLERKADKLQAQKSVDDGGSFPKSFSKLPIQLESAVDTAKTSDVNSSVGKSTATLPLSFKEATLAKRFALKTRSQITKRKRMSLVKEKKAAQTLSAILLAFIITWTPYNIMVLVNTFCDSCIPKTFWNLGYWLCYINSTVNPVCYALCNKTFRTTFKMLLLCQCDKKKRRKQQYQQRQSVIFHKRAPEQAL

For `Cc1ccc(-c2nc3ccc(C)cn3c2CC(=O)N(C)C)cc1` [Ambien, Zolpidem, reference compound], in data set [1] (30 mg/kg IP, at CT-18, rats), the “Motor Inhibition” value is on record as “YES”, the “REM Inhibition” value is listed as “YES” and the “Rebound Insomnia” value was “YES”.
The molecule `CN1[C@@H]2CC[C@H]1C[C@@H](OC(=O)C(CO)c1ccccc1)C2` (stereo partly drawn) [Atropine] yielded a Ki in data set [2] of 0.4 nM.
Consider `O=C(O)CCN1CCC(OC(c2ccccc2)c2ccccc2)CC1` [Compound 6a, 3-[4-(dipbenylmethoxy)piperidin-1-yl]propanoic acid hydrochloride], for which the Ki in data set [3] (setting [7]) was 56.1 nM; in data set [4] (setting [8]), greater than 10000 nM; in data set [5] (setting [9]), greater than 10000 nM; in data set [6] (setting [10]), 8900 nM.
Turning to `O=C(O)CN1CCC(=C2c3ccccc3COc3ccccc32)CC1` [Compound 7a], the Ki in data set [3] (setting [7]) came out at 55.1 nM.
Take `O=C(O)CCN1CCC(=C2c3ccccc3COc3ccccc32)CC1` [Compound 8a]: the Ki in data set [3] (setting [7]) was 62.5 nM; in data set [4] (setting [8]), greater than 10000 nM; in data set [5] (setting [9]), greater than 10000 nM; in data set [6] (setting [10]), greater than 10000 nM.
For `O=C(O)CCN1CCC(=C(c2ccccc2)c2ccccc2)CC1` [Compound 11a], the Ki was 119 nM in data set [3] (setting [11]), greater than 10000 nM in data set [4] (setting [13]), greater than 10000 nM in data set [5] (setting [14]) and greater than 10000 nM in data set [6] (setting [15]). For the same molecule, the IC50 in data set [4] (setting [12]), in data set [5] (setting [12]) and in data set [6] (setting [12]) was greater than 10000 nM in each case.
On to `CC(C)OC(=O)CCN1CCC(=C(c2ccccc2)c2ccccc2)CC1` [Compound 11d, Isopropyl 3-[4-(diphenylmethylidene)piperidin-1-yl]propanoate], for which the Ki in data set [3] (setting [11]) came out at 147 nM; in data set [4] (setting [13]), 696 nM; in data set [5] (setting [14]), 270 nM; in data set [6] (setting [15]), 2700 nM. Also, the figures for the IC50 in data set [4] (setting [12]), in data set [5] (setting [12]) and in data set [6] (setting [12]) were 8000 nM, 829 nM and 6080 nM, respectively.
On to `CC(C)COC(=O)CCN1CCC(=C(c2ccccc2)c2ccccc2)CC1` [Compound 11e, Isobutyl 3-[4-(diphenylmethylidene)piperidin-1-yl]propanoate], for which the Ki in data set [3] (setting [11]) came out at 279 nM; in data set [4] (setting [13]), 289 nM; in data set [5] (setting [14]), 1150 nM; in data set [6] (setting [15]), 710 nM. Also, the IC50 came out at 3760 nM in data set [4] (setting [12]), 3550 nM in data set [5] (setting [12]) and 2590 nM in data set [6] (setting [12]).
Consider `O=C(CCN1CCC(=C(c2ccccc2)c2ccccc2)CC1)OC1CCCC1.O=C(O)C(=O)O` [Compound 11f, Cyclopentyl 3-[4-(diphenylmethylidene)piperidin-1-yl]propanoate, oxalic acid salt], for which the Ki in data set [3] (setting [11]) was determined as 416 nM; in data set [4] (setting [13]) it was 170 nM. Moreover, the IC50 in data set [4] (setting [12]) is 2210 nM. For the same molecule, the “cumulative effect on total sleep time (TST) during the initial 5 hours post-treatment, relative to baseline” value in data set [1] (11f 30 mg/kg versus Zolpidem 10 mg/kg, rats, FIG. 1(b)) was “induced more TST than Zolpidem”. The locomotor activity entry in data set [1] (male Wistar rats, IP at CT-18, 10 and 30 mg/kg) is “reduction in locomotor activity”. Moreover, the “sleep continuity, as assessed by sleep bout length” value in data set [1] (male Wistar rats, IP at CT-18, 10 and 30 mg/kg, relative to vehicle control) is “increased sleep continuity”. Further, the total sleep time result in data set [1] (male Wistar rats, IP at CT-18, both 30 mg/kg and 10 mg/kg) was “significantly increased total sleep time for 3 hours post-treatment”. Further, in data set [1] (male Wistar rats, intraperitoneal bolus at CT-18, 11f 30 and 10 mg/kg, 6f and 15f 30 mg/kg), the “soporific effects (nonREM sleep time, sleep continuity)” value is given as “robust soporific effects”.
`O=C(CCN1CCC(=C(c2ccccc2)c2ccccc2)CC1)O[C@H]1CCOC1` [Compound 11g] gave an IC50 in data set [3] (setting [16]) of 196 nM. In addition, the Ki in data set [3] (setting [11]) is 86.1 nM.
In the case of `O=C(CCN1CCC(=C(c2ccccc2)c2ccccc2)CC1)OC1CCOC1` (stereo not drawn) [Compound 11h], the IC50 in data set [3] (setting [16]) came out at 201 nM; in data set [4] (setting [12]) it was 2240 nM; in data set [5] (setting [12]), 2140 nM; in data set [6] (setting [12]) it was 2200 nM. Besides, the Ki in data set [3] (setting [11]) turned out to be 88.3 nM; in data set [4] (setting [13]), 172 nM; in data set [5] (setting [14]) it was 697 nM; in data set [6] (setting [15]) it was 603 nM.
For `O=C(CCN1CCC(=C(c2ccccc2)c2ccccc2)CC1)OC1CCOCC1` [Compound 11i], the IC50 amounted to 200 nM in data set [3] (setting [16]), 221 nM in data set [4] (setting [12]), 221 nM in data set [5] (setting [12]) and 2330 nM in data set [6] (setting [12]). In addition, the Ki in data set [3] (setting [11]) stood at 87.8 nM; in data set [4] (setting [13]), 17 nM; in data set [5] (setting [14]), 72 nM; in data set [6] (setting [15]), 1030 nM.
On to `Cc1ccc(/C(=C\CN2CCCC2)c2cccc(C(=O)O)n2)cc1` [Compound 16a], for which the Ki in data set [4] (setting [8]), in data set [5] and in data set [6] (setting [10]) was greater than 10000 nM throughout.
Take `O=C(O)CCCN1CCC(OC(c2ccccc2)c2ccccc2)CC1` [Compound 53a]: the Ki is 16.1 nM in data set [3] (setting [7]), greater than 10000 nM in data set [4] (setting [8]), greater than 10000 nM in data set [5] (setting [9]) and greater than 10000 nM in data set [6] (setting [10]).
On to `O=C(O)CCCN1CCC(=C2c3ccccc3COc3ccccc32)CC1` [Compound 73a], for which the Ki in data set [3] (setting [7]) was 42.8 nM; in data set [4] (setting [8]), greater than 10000 nM; in data set [5] (setting [9]), greater than 10000 nM; in data set [6] (setting [10]), greater than 10000 nM.
For `CC(C)(CN1CCC(=C2c3ccccc3COc3ccccc32)CC1)C(=O)O` [Compound 74a], the Ki in data set [3] (setting [7]) is 109 nM; in data set [4] (setting [8]), greater than 10000 nM; in data set [5] (setting [9]), greater than 10000 nM; in data set [6] (setting [10]) it was greater than 10000 nM.
Take `CC(C)(CCN1CCC(=C2c3ccccc3COc3ccccc32)CC1)C(=O)O` [Compound 75a]: the Ki in data set [3] (setting [7]) is 47.9 nM; in data set [4] (setting [8]), greater than 10000 nM; in data set [5] (setting [9]), 3330 nM; in data set [6] (setting [10]), greater than 10000 nM.
On to `CN(C)CCCSC(=N)N` [Dimaprit, reference compound], for which the Ki in data set [3] (reference compounds, bovine cerebellar membranes, [3H]Pyrilamine 2.0 nM, read-out: Ki) is greater than 10000 nM.
`COc1ccccc1CNCCCCCCNCCCCCCCCNCCCCCCNCc1ccccc1OC` [Methoctramine, reference compound]: the Ki in data set [4] stood at 29.7 nM; in data set [6] (reference compounds, M3 human recombinant in CHO cells, read-out: Ki), 700 nM.
`Cc1scc2c1N(C(=O)CN1CCN(C)CC1)c1ccccc1NC2=O` [Telenzepine] came in with an inhibition constant Ki in data set [2] of 64.5 nM.
For `CC(C)OC(=O)CN1CCC(=C2c3ccccc3COc3ccccc32)CC1` [dox7d-oxalate], the Ki in data set [3] (setting [7]) was 198 nM; in data set [4] (setting [8]), greater than 10000 nM; in data set [5] (setting [9]), greater than 10000 nM; in data set [6] (setting [10]) it was greater than 10000 nM.
